Reference: patent US5939447A, “Substituted benzopyrans” (SmithKline Beecham Corporation, priority 1998, dated 1999)

Tests used:
[1] = human radiolabel study of pranlukast (recovery in feces, metabolites in feces and plasma); format: in vivo; conditions: for plasma concentrations of metabolite in humans: human plasma, limited data from the single radiolabelled study
[2] = incubation of pranlukast with human liver S9 from donor H51; format: in vitro ADME
Protocol: Samples from the human S9 incubations were received as a 1:1 mixture of incubation media and acetonitrile. In order to reduce the relative organic content to about 25%, the samples were diluted with an equal volume of water prior to HPLC/MS and HPLC/MS/MS analysis. Samples from the microsomal incubations were also received as a 1:1 mixture of incubation media and acetonitrile. The relative organic content was however reduced to about 25% by evaporation following the centrifugation step.
Retention times observed in the ion chromatograms for m/z 498 and 482 (pranlukast) correlate well with those in the radiochromatogram. […] Therefore, in the CID spectra of the two monohydroxylated metabolites and the parent compound, the precursor and fragment ions are all shifted by +2 amu due to the predominance of the [^14 C] label. The observed fragmentation patterns are identical to the standards and confirmed the presence of pranlukast, as well as two monohydroxylated metabolites.

[3] = incubation of pranlukast with liver microsomes from dogs; format: in vitro ADME; conditions: dog liver microsomes
[4] = assays predictive of utility in treating asthma
[5] = incubation of pranlukast with liver microsomes from rats or mice; format: in vitro ADME; conditions: rat or mouse liver microsomes; for metabolite formation from pranlukast: high concentrations of pranlukast (50 uM)
[6] = incubation with human liver microsomes; format: in vitro ADME; conditions: human liver microsomes and NADPH
Protocol: From an evaluation of a battery of human liver microsomes, it was evident that some human livers have enhanced activity towards benzylic hydroxylation. It appears that benzylic and aryl hydroxylation are performed by different P450 enzymes but which enzyme(s) is currently not known.
Preparation of Formula (I) Using Human Hepatic Microsomes:
The incubations were performed with a final volume of 100 mL in a shaking water bath at a temperature of approximately 37° C. Each incubation contained approximately 400 ug/mL of microsomal protein (H51), 0.5 mL 2 mM pranlukast in a 16% w/v encapsin solution containing 1.5% w/v sodium bicarbonate. The incubation volume was adjusted to 75 mL with 50 mM potassium phosphate buffer (pH 7.4). Following a 5 minute pre-incubation at approximately 37° C., the reaction was initiated by the addition of 25 mL of pre-warmed cofactor solution (approximately 1.7 mg NADP, 7.8 mg glucose 6-phosphate and 6 units of glucose 6-phosphate dehydrogenase per mL of 2% (w/v) sodium hydrogen carbonate). […] The putative benzyl hydroxy metabolite was subsequently isolated and analysed as described below. […]
The incubation was performed with a final volume of […] in a shaking water bath at a temperature of approximately 37° C. […] The putative dihydroxymetabolite formed was subsequently analysed and isolated as described below.

Row | absorption ([1]; human) | route of metabolism in humans ([1]; human, benzylic hydroxylation) | dose excreted ([1]; human, feces, after pranlukast, read-out: administered radiolabel recovered in feces as the named species) [%] | administered radiolabel recovered in feces ([1]; human, total radiolabel after pranlukast) [%] | Compound | sulfation in humans ([1]; human) | plasma concentrations of metabolite in humans [1] | plasma concentrations of metabolite in humans ([1]; listed as benzylhydroxy) | dependence of metabolite formation on NADPH [2] | metabolite formation from pranlukast [2] | metabolite formation from pranlukast [3] | activity in assays predictive of utility in treating asthma and other diseases which can be treated by pranlukast [4] | metabolite formation from pranlukast [5] | presence of metabolite in human fecal samples ([1]; human feces) | metabolite generated in vitro from the 4-hydroxyphenyl pranlukast analog [6] | predominant metabolic pathway [5]
1 | – | – | – | – | O=C(Nc1cccc2c(=O)cc(-c3nnn[nH]3)oc12)c1ccc(OCCCC(O)c2ccccc2)cc1 (centres unmarked) [Formula (I), 4-oxo-8-[4-(4-hydroxy-4-phenylbutoxy)benzoylamino]-2-tetrazol-5-yl-4H-1-benzopyran] | no evidence for sulfation | measurable plasma concentrations in humans | measurable in human plasma | dependent on the presence of NADPH | major metabolites | only very small amounts | active | detectable | – | – | –
2 | – | – | – | – | O=C(Nc1cccc2c(=O)cc(-c3nnn[nH]3)oc12)c1ccc(OCCCC(O)c2ccc(O)cc2)cc1 (centres unmarked) [Formula (II), 4-oxo-8-[4-(4-hydroxy-4-(4-hydroxyphenyl)butoxy)benzoylarnino]-2-tetrazol-5-yl-4H-1-benzopyran] | appears to be sulfated in humans | measurable in human plasma | – | – | – | form the arylhydroxy species | active | detectable | found in human fecal samples | generated in vitro | –
3 | poor absorption | major route of metabolism in humans | ~84 | 98.4 | O=C(Nc1cccc2c(=O)cc(-c3nnn[nH]3)oc12)c1ccc(OCCCCc2ccccc2)cc1 [pranlukast, reference compound] | – | – | – | – | – | – | – | – | – | – | hydrolysis of the amide bond in the center of the molecule is the predominant metabolic pathway
